Test results published in the NIST ThermoML archive (doi:10.1021/je200371n).

Details: Gas

S [hydrogen sulfide]
Mass density=0.74 kg/m3
Details	viscosity [mPa·s]
291.61 K	0.01186
292.3 K	0.01186
292.46 K	0.01187
292.77 K	0.01188
296.89 K	0.01207
297.01 K	0.01206
323.94 K	0.01319
323.96 K	0.01318
350.47 K	0.01429
350.59 K	0.0143
378.01 K	0.01543
378.19 K	0.01544
405.76 K	0.01656
405.86 K	0.01657
433.66 K	0.01769
433.81 K	0.0177
461.72 K	0.01881
461.92 K	0.01882
490.09 K	0.01993
490.2 K	0.01992
518.68 K	0.021
518.75 K	0.021
542.48 K	0.0219
542.61 K	0.0219
565.19 K	0.02274
565.29 K	0.02275
593.95 K	0.02379
594.02 K	0.02379
623.07 K	0.02482
623.19 K	0.02482
652.3 K	0.02584
652.32 K	0.02584
681.36 K	0.02682
682.03 K	0.02684

C [methane]
Details	viscosity [mPa·s]
289.05 K, Mass density=0.498 kg/m3	0.01081
290.41 K, Mass density=0.498 kg/m3	0.01083
291.93 K, Mass density=0.344 kg/m3	0.01089
292.96 K, Mass density=0.344 kg/m3	0.01092
296.43 K, Mass density=0.498 kg/m3	0.01103
296.57 K, Mass density=0.498 kg/m3	0.01105
297.08 K, Mass density=0.344 kg/m3	0.01106
323.43 K, Mass density=0.498 kg/m3	0.01189
323.86 K, Mass density=0.344 kg/m3	0.01191
350.55 K, Mass density=0.344 kg/m3	0.01273
350.64 K, Mass density=0.498 kg/m3	0.01272
378.15 K, Mass density=0.344 kg/m3	0.01356
378.25 K, Mass density=0.498 kg/m3	0.01355
405.88 K, Mass density=0.344 kg/m3	0.01436
406.03 K, Mass density=0.498 kg/m3	0.01436
433.83 K, Mass density=0.344 kg/m3	0.01514
434.02 K, Mass density=0.498 kg/m3	0.01514
461.75 K, Mass density=0.498 kg/m3	0.0159
461.85 K, Mass density=0.344 kg/m3	0.01591
490.13 K, Mass density=0.344 kg/m3	0.01666
490.15 K, Mass density=0.498 kg/m3	0.01665
518.8 K, Mass density=0.498 kg/m3	0.0174
518.83 K, Mass density=0.344 kg/m3	0.01739
542.36 K, Mass density=0.498 kg/m3	0.01798
542.6 K, Mass density=0.344 kg/m3	0.01799
565.1 K, Mass density=0.498 kg/m3	0.01854
565.38 K, Mass density=0.344 kg/m3	0.01856
593.84 K, Mass density=0.498 kg/m3	0.01924
594.08 K, Mass density=0.344 kg/m3	0.01925
623.05 K, Mass density=0.498 kg/m3	0.01993
623.33 K, Mass density=0.344 kg/m3	0.01995
652.07 K, Mass density=0.498 kg/m3	0.02061
652.41 K, Mass density=0.344 kg/m3	0.02062
681.93 K, Mass density=0.498 kg/m3	0.02127
682.14 K, Mass density=0.344 kg/m3	0.0213
